In patent US12636274B2, “Pharmaceutical compositions and methods for systemic treatment of solid tumors” (7 HILLS INTERESTS LLC, priority 2014, dated 2026):

Tests used:
[1] = system: CD3+ CD8+ and CD3+ CD4+ tumor infiltrating T-cells; assay: Tumor infiltrating lymphocytes (TILs) by FACS in CT26 tumors; format: in vivo, Mouse (Mus musculus)
Description: On day 19 of treatment initiation tumors were isolated from study mice aseptically (n=5/group).
Tumor tissue was minced devoid of dead and necrotic tissue was mechanically disaggregated aseptically in RPMI medium without proteolytic enzymes in gentleMACS C-tubes using gentleMACS Octo Dissociator under the program 37C_m_TDK_1_30m (Miltenyi Biotec). Cell suspension was enriched for single cells by filtering the disaggregated mix through 70 μm cell strainer. Cells were pelleted at 300 g for 7 min at 4° C., washed twice with fresh complete media followed by FACS buffer containing PBS w/o calcium and magnesium (pH 7.4), 2% FBS and 0.05% sodium azide. Note: Proteolytic enzymes may chew up the antigen epitopes, therefore enzymatic dissociation is not performed.
Five million total viable cells were used as input for staining with the following fluorochrome conjugated antibodies for 30 min on ice in dark. Unbound stain was removed by washing cells in FACS buffer twice. […]
Unstained cells were used for setting up gates and focus single cells using INSPIRE acquisition software in Amnis FlowSight flow cytometer (Amnis Corporation, Seattle, WA) with 405, 488, 642 nm excitation lasers. […]
Before proceeding for FACS acquisition, we have recorded the total viable cell yield for each tumor sample. […] From the CD3 positive population gated out of viable 7AAD-ve population, the percentage of viable cells displaying CD3 positive signal was recorded using the statistics option in FACS software. […] Based on this information, yield per million cells was calculated and reported in results.
In addition, tumors were allowed to grow up to day 18 with continued Compound 1 dose, that decreased tumor growth resulting in a significant inhibition p<0.01 in the q.d. group compared to p<0.0001 in BID group. […] Upon non-enzymatic dissociation, cell viability was assessed and subjected to enumeration of CD3^+, CD4^+ or CD8^+ tumor infiltrating T-cells (detailed method, refer section 11).

[2] = Safety margin (STD 10) and autoimmune toxicity; settings: in vivo

Q: Which “CD3+ and CD4+ double positive cells in tumor” value ([1]; Study 3, day 19, compared to vehicle control) does the source give for O=C(OCCOCCOCCOC(=O)N(Cc1cccs1)Cc1cccs1)N(Cc1cccs1)Cc1cccs1 [Compound 1, 3-oxo-1-(2-thienyl)-2-(2-thienylmethyl)-4,7,10-trioxa-2-azadodecan-12-yl bis(2-thienylmethyl)carbamate] here?
A: Its value is “decreased trend”.

Q: What about the “CD3+ and CD8+ double positive T-cells in tumor” value ([1]; Study 3, day 19, compared to vehicle control, opposite to the decreased CD3+ CD4+ trend) of the same molecule?
A: The value was “trend was opposite”.

Q: What about the “ratio of CD8+/CD4+ T-cells in tumors” value ([1]; single agent, in response to treatment) of the same molecule?
A: The value was “progressive increase”.

Q: And the autoimmune toxicity [2]?
A: The autoimmune toxicity was “no autoimmune toxicity”.

Q: What about the “safety margin (STD 10)” value [2] of the same molecule?
A: Its value is > 300 times therapeutic exposure.
